The results in this text go back to paper PMC5218480 (PLoS ONE, 2017).

This test deals with MV-4-11 cells. The experiment in a line: Gene expression microarray analysis (Affymetrix PrimeView) and GSEA. On the set-up: RFU PODN (11730768_x_at) / Fold change /veh PODN (11730768_x_at) / RFU LINC00158 (11744669_a_at) / Fold change /veh LINC00158 (11744669_a_at) / RFU DUSP10 (11751237_a_at) / Fold change /veh DUSP10 (11751237_a_at) / RFU ID3 (11757404_x_at) / Fold change /veh ID3 (11757404_x_at) / RFU PLEKHG5 (11737974_s_at) / Fold change /veh PLEKHG5 (11737974_s_at) / RFU LRRC4B (11730491_at) / Fold change /veh LRRC4B (11730491_at) / RFU GIMAP4 (11747438_a_at) / Fold change /veh GIMAP4 (11747438_a_at) / RFU KRT8 (11758183_x_at) / Fold change /veh KRT8 (11758183_x_at) / RFU CNN1 (11734310_a_at) / Fold change /veh CNN1 (11734310_a_at) / RFU VPS37D (11726825_at) / Fold change /veh VPS37D (11726825_at) / RFU C10orf10 (11716522_x_at) / Fold change /veh C10orf10 (11716522_x_at) / RFU KIR2DL2 /// KIR2DL4 /// KIR2DL5A /// KIR2DL5B /// KIR2DS1 /// KIR2DS2 /// KIR2DS3 /// KIR2DS4 /// KIR3DL3 /// KIR3DL3 /// KIR3DS1 (11738374_at) / Fold change /veh KIR2DL2 /// KIR2DL4 /// KIR2DL5A /// KIR2DL5B /// KIR2DS1 /// KIR2DS2 /// KIR2DS3 /// KIR2DS4 /// KIR3DL3 /// KIR3DL3 /// KIR3DS1 (11738374_at) / RFU C1QL1 (11718748_at) / Fold change /veh C1QL1 (11718748_at) / RFU TMPRSS4 (11747572_a_at) / Fold change /veh TMPRSS4 (11747572_a_at) / RFU HAMP (11756126_x_at) / Fold change /veh HAMP (11756126_x_at) / RFU RNFT2 (11725882_a_at) / Fold change /veh RNFT2 (11725882_a_at) / RFU NR4A2 (11747474_a_at) / Fold change /veh NR4A2 (11747474_a_at) / RFU ABCC12 (11746883_a_at) / Fold change /veh ABCC12 (11746883_a_at) / RFU TMEM136 (11760407_x_at) / Fold change /veh TMEM136 (11760407_x_at) / RFU CLDN22 /// WWC2 (11732394_at) / Fold change /veh CLDN22 /// WWC2 (11732394_at) / RFU HLA-DPB1 (11760878_x_at) / Fold change /veh HLA-DPB1 (11760878_x_at) / RFU SPINT1 (11716480_a_at) / Fold change /veh SPINT1 (11716480_a_at) / RFU GAP43 (11754022_s_at) / Fold change /veh GAP43 (11754022_s_at) / RFU A4GNT (11735810_at) / Fold change /veh A4GNT (11735810_at) / RFU PRB3 (11715151_x_at) / Fold change /veh PRB3 (11715151_x_at) / RFU TUBB4B (11761932_at) / Fold change /veh TUBB4B (11761932_at) / RFU CAPN14 (11732068_a_at) / Fold change /veh CAPN14 (11732068_a_at) / RFU TMCC2 (11721928_a_at) / Fold change /veh TMCC2 (11721928_a_at) / RFU IRGQ (11745062_a_at) / Fold change /veh IRGQ (11745062_a_at) / RFU FAM174B (11720279_a_at) / Fold change /veh FAM174B (11720279_a_at) / RFU TMPRSS4 (11748680_a_at) / Fold change /veh TMPRSS4 (11748680_a_at) / RFU FAM212B (11763350_a_at) / Fold change /veh FAM212B (11763350_a_at) / RFU PLEKHG5 (11743358_a_at) / Fold change /veh PLEKHG5 (11743358_a_at) / RFU ZSCAN30 (11745921_a_at) / Fold change /veh ZSCAN30 (11745921_a_at) / RFU CMKLR1 (11741424_a_at) / Fold change /veh CMKLR1 (11741424_a_at) / RFU LOC101060620 /// MAPK8IP1 (11723275_at) / Fold change /veh LOC101060620 /// MAPK8IP1 (11723275_at) / RFU SPTSSB (11747773_x_at) / Fold change /veh SPTSSB (11747773_x_at) / RFU PRSS12 (11739890_at) / Fold change /veh PRSS12 (11739890_at) / RFU BIN1 (11741810_x_at) / Fold change /veh BIN1 (11741810_x_at) / RFU WNT11 (11732464_a_at) / Fold change /veh WNT11 (11732464_a_at) / RFU C10orf10 (11716521_a_at) / Fold change /veh C10orf10 (11716521_a_at) / RFU C5orf56 (11738089_at) / Fold change /veh C5orf56 (11738089_at) / RFU CYB561 (11721691_x_at) / Fold change /veh CYB561 (11721691_x_at) / RFU ANKRD19P (11752326_a_at) / Fold change /veh ANKRD19P (11752326_a_at) / RFU OR2T12 /// OR2T33 /// OR2T8 (11738714_s_at) / Fold change /veh OR2T12 /// OR2T33 /// OR2T8 (11738714_s_at) / RFU VCAN (11748164_a_at) / Fold change /veh VCAN (11748164_a_at) / RFU JSRP1 (11732532_at) / Fold change /veh JSRP1 (11732532_at) / RFU KRTAP10-11 (11738290_x_at) / Fold change /veh KRTAP10-11 (11738290_x_at) / RFU MYO3A (11730013_a_at) / Fold change /veh MYO3A (11730013_a_at) / RFU EBF3 (11725865_a_at) / Fold change /veh EBF3 (11725865_a_at) / RFU CAMK2N1 (11719241_x_at) / Fold change /veh CAMK2N1 (11719241_x_at) / RFU C5orf56 (11738088_a_at) / Fold change /veh C5orf56 (11738088_a_at) / RFU OLFML3 (11715873_a_at) / Fold change /veh OLFML3 (11715873_a_at) / RFU LOC100653217 /// NTM (11731650_a_at) / Fold change /veh LOC100653217 /// NTM (11731650_a_at) / RFU MAPK11 (11762145_a_at) / Fold change /veh MAPK11 (11762145_a_at) / RFU FIZ1 (11724087_x_at) / Fold change /veh FIZ1 (11724087_x_at) / RFU OASL (11726364_x_at) / Fold change /veh OASL (11726364_x_at) / RFU SOX15 (11748057_x_at) / Fold change /veh SOX15 (11748057_x_at) / RFU CD79A (11719716_a_at) / Fold change /veh CD79A (11719716_a_at) / RFU HIST1H1D (11736915_at) / Fold change /veh HIST1H1D (11736915_at) / RFU CASKIN2 (11723855_a_at) / Fold change /veh CASKIN2 (11723855_a_at) / RFU LOC730098 (11760151_x_at) / Fold change /veh LOC730098 (11760151_x_at) / RFU OR4N2 (11742367_at) / Fold change /veh OR4N2 (11742367_at) / RFU PRRT2 (11749266_a_at) / Fold change /veh PRRT2 (11749266_a_at) / RFU SNX32 (11753110_a_at) / Fold change /veh SNX32 (11753110_a_at) / RFU CDHR5 (11726645_a_at) / Fold change /veh CDHR5 (11726645_a_at) / RFU RCAN1 (11760418_a_at) / Fold change /veh RCAN1 (11760418_a_at) / RFU FAM167A (11723789_a_at) / Fold change /veh FAM167A (11723789_a_at) / RFU FAM26E (11764081_at) / Fold change /veh FAM26E (11764081_at) / RFU ISYNA1 (11749810_s_at) / Fold change /veh ISYNA1 (11749810_s_at) / RFU ACY1 (11761880_at) / Fold change /veh ACY1 (11761880_at) / RFU 11764098_at / Fold change /veh 11764098_at / RFU SAMD14 (11745864_x_at) / Fold change /veh SAMD14 (11745864_x_at) / RFU NPB (11741838_a_at) / Fold change /veh NPB (11741838_a_at) / RFU TMPRSS6 (11731388_a_at) / Fold change /veh TMPRSS6 (11731388_a_at) / RFU KRTAP10-2 (11738614_at) / Fold change /veh KRTAP10-2 (11738614_at) / RFU ARHGAP8 /// PRR5-ARHGAP8 (11727945_x_at) / Fold change /veh ARHGAP8 /// PRR5-ARHGAP8 (11727945_x_at) / RFU KRTAP5-7 /// NADSYN1 (11734609_at) / Fold change /veh KRTAP5-7 /// NADSYN1 (11734609_at) / RFU RASL12 (11751679_a_at) / Fold change /veh RASL12 (11751679_a_at) / RFU CDKN2B (11736163_a_at) / Fold change /veh CDKN2B (11736163_a_at) / RFU PRF1 (11729649_at) / Fold change /veh PRF1 (11729649_at) / RFU, ZNF638 /// ZNF638-IT1 / Fold change vs veh, ZNF638 /// ZNF638-IT1 / RFU, PANK3 / Fold change vs veh, PANK3 / RFU, SH3YL1 / Fold change vs veh, SH3YL1 / RFU, ZEB2 / Fold change vs veh, ZEB2 / RFU, NRIP1 / Fold change vs veh, NRIP1 / RFU, PTTG1IP / Fold change vs veh, PTTG1IP / RFU, CAPN2 / Fold change vs veh, CAPN2 / RFU, MED14 / Fold change vs veh, MED14 / RFU, SNORA58 / Fold change vs veh, SNORA58 / RFU, C1orf63 / Fold change vs veh, C1orf63 / RFU, LRRFIP1 / Fold change vs veh, LRRFIP1 / RFU, NDUFAF7 / Fold change vs veh, NDUFAF7 / RFU, SLC12A2 / Fold change vs veh, SLC12A2 / RFU, IBTK / Fold change vs veh, IBTK / RFU, ESF1 / Fold change vs veh, ESF1 / Fold change vs veh, TMEM50B / RFU, TAOK1 / Fold change vs veh, TAOK1 / RFU, ACBD3 / Fold change vs veh, ACBD3 / RFU, TMA16 / Fold change vs veh, TMA16 / RFU, RWDD3 / Fold change vs veh, RWDD3 / RFU, BCAT1 / Fold change vs veh, BCAT1 / RFU, EDEM3 / Fold change vs veh, EDEM3 / RFU, TMEM33 / Fold change vs veh, TMEM33 / RFU, WDR75 / Fold change vs veh, WDR75 / RFU, AHCTF1 / Fold change vs veh, AHCTF1 / RFU, TFRC / Fold change vs veh, TFRC / RFU, ZDHHC17 / Fold change vs veh, ZDHHC17 / RFU, NOM1 / Fold change vs veh, NOM1 / RFU, ARL8B / Fold change vs veh, ARL8B / RFU, ZBTB11 / Fold change vs veh, ZBTB11 / RFU, TAMM41 / Fold change vs veh, TAMM41 / RFU, KIAA1704 /// LOC100996395 / Fold change vs veh, KIAA1704 /// LOC100996395 / RFU, ING1 / Fold change vs veh, ING1 / RFU, TRMT61B / Fold change vs veh, TRMT61B / RFU, FUBP3 / Fold change vs veh, FUBP3 / RFU, TP53 / Fold change vs veh, TP53 / RFU, TNKS2 / Fold change vs veh, TNKS2 / RFU, ZFP14 / Fold change vs veh, ZFP14 / RFU, ACTR2 / Fold change vs veh, ACTR2 / RFU, PPP3R1 / Fold change vs veh, PPP3R1 / RFU, PIK3R1 / Fold change vs veh, PIK3R1 / RFU, HNRNPA1 / Fold change vs veh, HNRNPA1 / RFU, RNF170 / Fold change vs veh, RNF170 / RFU, ZNF28 / Fold change vs veh, ZNF28 / RFU, RNGTT / Fold change vs veh, RNGTT / RFU, OGT / Fold change vs veh, OGT / RFU, BRD1 / Fold change vs veh, BRD1 / RFU, MARS / Fold change vs veh, MARS / RFU, ZNF655 / Fold change vs veh, ZNF655 / RFU, FAHD1 / Fold change vs veh, FAHD1 / RFU, BDP1 / Fold change vs veh, BDP1 / RFU, LRRCC1 / Fold change vs veh, LRRCC1 / RFU, ARID1A / Fold change vs veh, ARID1A / RFU, ZNF146 / Fold change vs veh, ZNF146 / RFU, ZNF330 / Fold change vs veh, ZNF330 / RFU, GPN3 / Fold change vs veh, GPN3 / RFU, C9orf123 / Fold change vs veh, C9orf123 / RFU, N4BP2L2 / Fold change vs veh, N4BP2L2 / RFU, ARFIP1 / Fold change vs veh, ARFIP1 / RFU, FAM179B / Fold change vs veh, FAM179B / RFU, BCL10 / Fold change vs veh, BCL10 / RFU, UHRF1BP1L / Fold change vs veh, UHRF1BP1L / RFU, BET1 / Fold change vs veh, BET1 / RFU, CNOT2 / Fold change vs veh, CNOT2 / RFU, ZNF268 / Fold change vs veh, ZNF268 / Fold change vs veh, ZNF507 / RFU, DGCR2 / Fold change vs veh, DGCR2 / RFU, WDSUB1 / Fold change vs veh, WDSUB1 / Fold change vs veh, HSP90B1 /// MIR3652 / RFU, ADSS / Fold change vs veh, ADSS / RFU, GK / Fold change vs veh, GK / RFU, ZNF148 / Fold change vs veh, ZNF148 / RFU, TAF9 / Fold change vs veh, TAF9 / RFU, SLC1A5 / Fold change vs veh, SLC1A5 / RFU, SLMO2 / Fold change vs veh, SLMO2 / RFU, ABCC4 / Fold change vs veh, ABCC4 / RFU, LOC101060439 /// RAP1B / Fold change vs veh, LOC101060439 /// RAP1B / RFU, RFX7 / Fold change vs veh, RFX7 / RFU, GTPBP10 / Fold change vs veh, GTPBP10 / RFU, CNEP1R1 / Fold change vs veh, CNEP1R1 / RFU, BIVM-ERCC5 /// ERCC5 / Fold change vs veh, BIVM-ERCC5 /// ERCC5 / RFU, ILF3 / Fold change vs veh, ILF3 / RFU 11762660_at / Fold change /veh 11762660_at / RFU VCAN (11757783_s_at) / Fold change /veh VCAN (11757783_s_at) / RFU DDX43 (11728927_at) / Fold change /veh DDX43 (11728927_at) / RFU KRT8 (11758188_x_at) / Fold change /veh KRT8 (11758188_x_at) / RFU NKD1 (11759106_at) / Fold change /veh NKD1 (11759106_at) / RFU SRD5A1 (11742802_a_at) / Fold change /veh SRD5A1 (11742802_a_at) / RFU TPSAB1 /// TPSB2 (11721975_s_at) / Fold change /veh TPSAB1 /// TPSB2 (11721975_s_at) / RFU GSTM3 (11746129_a_at) / Fold change /veh GSTM3 (11746129_a_at) / RFU IL23R (11737362_x_at) / Fold change /veh IL23R (11737362_x_at) / RFU TMEM51 (11727254_a_at) / Fold change /veh TMEM51 (11727254_a_at) / RFU PIWIL2 (11732686_x_at) / Fold change /veh PIWIL2 (11732686_x_at) / RFU ORM1 (11744905_x_at) / Fold change /veh ORM1 (11744905_x_at) / RFU CCDC152 (11743942_at) / Fold change /veh CCDC152 (11743942_at) / RFU ECM1 (11717891_a_at) / Fold change /veh ECM1 (11717891_a_at) / RFU IL23R (11748794_a_at) / Fold change /veh IL23R (11748794_a_at) / RFU TNFAIP8L3 (11732012_x_at) / Fold change /veh TNFAIP8L3 (11732012_x_at) / RFU MBOAT4 (11741988_at) / Fold change /veh MBOAT4 (11741988_at) / RFU 11764193_at / Fold change /veh 11764193_at / RFU TMEM53 (11763286_at) / Fold change /veh TMEM53 (11763286_at) / RFU MAGEB2 (11727129_at) / Fold change /veh MAGEB2 (11727129_at) / RFU TMEM200A (11744735_a_at) / Fold change /veh TMEM200A (11744735_a_at) / RFU CCDC152 (11751479_a_at) / Fold change /veh CCDC152 (11751479_a_at) / RFU FAM211A (11726209_a_at) / Fold change /veh FAM211A (11726209_a_at) / RFU RGS16 (11746705_a_at) / Fold change /veh RGS16 (11746705_a_at) / RFU VCAN (11755009_s_at) / Fold change /veh VCAN (11755009_s_at) / RFU RHOB (11743442_s_at) / Fold change /veh RHOB (11743442_s_at) / RFU RGS16 (11720943_a_at) / Fold change /veh RGS16 (11720943_a_at) / RFU RGS16 (11720944_at) / Fold change /veh RGS16 (11720944_at) / RFU, VPS4B / Fold change vs veh, VPS4B / RFU, CREB1 / Fold change vs veh, CREB1 / RFU, DNAJC13 / Fold change vs veh, DNAJC13 / RFU, GNAQ / Fold change vs veh, GNAQ / RFU, CDK5R1 / Fold change vs veh, CDK5R1 / RFU, ZRANB3 / Fold change vs veh, ZRANB3 / RFU, CUL4A / Fold change vs veh, CUL4A / RFU, CCNY / Fold change vs veh, CCNY / RFU, UFL1 / Fold change vs veh, UFL1 / RFU, COG3 / Fold change vs veh, COG3 / RFU, DIAPH2 / Fold change vs veh, DIAPH2 / RFU, SKA2 / Fold change vs veh, SKA2 / RFU, AFF3 / Fold change vs veh, AFF3 / RFU, LMF1 / Fold change vs veh, LMF1 / RFU, IPO11 / Fold change vs veh, IPO11 / RFU, DFFB / Fold change vs veh, DFFB / RFU, FOXP1 / Fold change vs veh, FOXP1 / RFU, CARD8 / Fold change vs veh, CARD8 / RFU, STRN3 / Fold change vs veh, STRN3 / RFU, ADK / Fold change vs veh, ADK / RFU, RASSF2 / Fold change vs veh, RASSF2 / RFU, WIPF1 / Fold change vs veh, WIPF1 / RFU, LARP1B / Fold change vs veh, LARP1B / RFU, RASA1 / Fold change vs veh, RASA1 / RFU, RB1 / Fold change vs veh, RB1 / RFU, PPFIA1 / Fold change vs veh, PPFIA1 / RFU, MAT2A / Fold change vs veh, MAT2A / RFU, CCT5 / Fold change vs veh, CCT5 / RFU, WDR92 / Fold change vs veh, WDR92 / RFU, CUX1 / Fold change vs veh, CUX1 / RFU, TTC7A / Fold change vs veh, TTC7A / RFU, TMEM135 / Fold change vs veh, TMEM135 / RFU, DEPTOR / Fold change vs veh, DEPTOR / RFU, CPM / Fold change vs veh, CPM / RFU, DNAJB6 / Fold change vs veh, DNAJB6 / RFU, CACNA2D3 / Fold change vs veh, CACNA2D3 / RFU, DTX4 / Fold change vs veh, DTX4 / RFU, TFCP2 / Fold change vs veh, TFCP2 / RFU, GMCL1 /// GMCL1P1 / Fold change vs veh, GMCL1 /// GMCL1P1 / RFU, AEBP2 / Fold change vs veh, AEBP2 / RFU, SNHG1 /// SNORD22 /// SNORD25 /// SNORD26 /// SNORD27 /// SNORD28 /// SNORD29 /// SNORD31 / Fold change vs veh, SNHG1 /// SNORD22 /// SNORD25 /// SNORD26 /// SNORD27 /// SNORD28 /// SNORD29 /// SNORD31 / Fold change (Aza/veh), C12orf56 (ProbeSet 11735607_a_at) / Fold change (ACY-1035/veh), C12orf56 (ProbeSet 11735607_a_at) / Fold change (Aza/veh), FGFR1OP (ProbeSet 11751329_s_at) / Fold change (ACY-1035/veh), FGFR1OP (ProbeSet 11751329_s_at) / Fold change (Aza/veh), VPS36 (ProbeSet 11739960_a_at) / Fold change (ACY-1035/veh), VPS36 (ProbeSet 11739960_a_at) / RFU SYPL1 (11715823_x_at) / Fold change /veh SYPL1 (11715823_x_at) / RFU IGFBP7 (11715501_s_at) / Fold change /veh IGFBP7 (11715501_s_at) / RFU REEP3 (11722064_at) / Fold change /veh REEP3 (11722064_at) / RFU IGLL1 (11728026_x_at) / Fold change /veh IGLL1 (11728026_x_at): dose or concentration left out as unconfirmed. The note with it: ProbeSet 11739696_s_at; LIST D. Type of test: cell-based, human.

Consider `Nc1ccc(-c2cccs2)cc1NC(=O)c1ccc2c(c1)cc(C1CC1)n2CCN1CCOCC1` [ACY-1035], for which the “Fold change vs veh, AFF3” value was determined as 1.00.
